The values that follow come from paper PMC9516332 (Frontiers in Oncology, 2022).

What all share (test): Kinase panel profiling at 1 µmol/L (MSA or IMAP), percentage inhibition
What all share (type): biochemical

Experiment [1] addresses panel of 255 wild-type kinases (Homo sapiens, UniProt Q9UM73). To be noted: ALK kinase assay; 1 µmol/L single concentration; read-out: %-inhibition ALK.
Experiment [2] deals with panel of 255 wild-type kinases (Homo sapiens, UniProt P29317). To be noted: kinase EPHA2; 1 µmol/L single concentration; read-out: %-inhibition at 1 µmol/L, EPHA2.
The target in experiment [3] is panel of 255 wild-type kinases (Homo sapiens, UniProt Q16288). To be noted: kinase TRKC; 1 µmol/L single concentration; read-out: %-inhibition at 1 µmol/L, TRKC.
Experiment [4] has as its target panel of 255 wild-type kinases (Homo sapiens, UniProt Q86Z02). The settings on record: kinase HIPK1; 1 µmol/L single concentration; read-out: %-inhibition at 1 µmol/L, HIPK1.
The target of experiment [5] is panel of 255 wild-type kinases (Homo sapiens, UniProt Q9HCP0). The settings on record: kinase CK1γ1; 1 µmol/L single concentration; read-out: %-inhibition at 1 µmol/L, CK1γ1.
The target in experiment [6] is panel of 255 wild-type kinases (Homo sapiens, UniProt O94804). The settings on record: kinase LOK; 1 µmol/L single concentration; read-out: %-inhibition at 1 µmol/L, LOK.
The target of experiment [7] is panel of 255 wild-type kinases (Homo sapiens, UniProt P78362). To be noted: kinase SRPK2; 1 µmol/L single concentration; read-out: %-inhibition at 1 µmol/L, SRPK2.
Experiment [8] concerns the target panel of 255 wild-type kinases (Homo sapiens, UniProt Q9UKE5). To be noted: kinase TNIK; 1 µmol/L single concentration; read-out: %-inhibition at 1 µmol/L, TNIK.
Experiment [9] deals with panel of 255 wild-type kinases (Homo sapiens, UniProt Q9H1R3). The settings on record: kinase skMLCK; 1 µmol/L single concentration; read-out: %-inhibition at 1 µmol/L, skMLCK.
For experiment [10], the target named is panel of 255 wild-type kinases (Homo sapiens, UniProt P41240). To be noted: kinase CSK; 1 µmol/L single concentration; read-out: %-inhibition at 1 µmol/L, CSK.
For experiment [11], the target named is panel of 255 wild-type kinases (Homo sapiens, UniProt P51957). The settings on record: NEK4; 1 µmol/L single concentration; read-out: %-inhibition, NEK4.
Experiment [12] addresses panel of 255 wild-type kinases (Homo sapiens, UniProt Q13882). The settings on record: BRK kinase assay; 1 µmol/L single concentration; read-out: %-inhibition BRK.
The target in experiment [13] is panel of 255 wild-type kinases (Homo sapiens, UniProt Q04912). The settings on record: kinase RON; 1 µmol/L single concentration; read-out: %-inhibition at 1 µmol/L, RON.
The target of experiment [14] is panel of 255 wild-type kinases (Homo sapiens, UniProt Q7KZI7). The settings on record: MARK2; 1 µmol/L single concentration; read-out: %-inhibition, MARK2.
Experiment [15] deals with T1, panel of 255 wild-type kinases (Homo sapiens, UniProt Q9BXA7).
T1 sequence (Q9BXA7 1-367): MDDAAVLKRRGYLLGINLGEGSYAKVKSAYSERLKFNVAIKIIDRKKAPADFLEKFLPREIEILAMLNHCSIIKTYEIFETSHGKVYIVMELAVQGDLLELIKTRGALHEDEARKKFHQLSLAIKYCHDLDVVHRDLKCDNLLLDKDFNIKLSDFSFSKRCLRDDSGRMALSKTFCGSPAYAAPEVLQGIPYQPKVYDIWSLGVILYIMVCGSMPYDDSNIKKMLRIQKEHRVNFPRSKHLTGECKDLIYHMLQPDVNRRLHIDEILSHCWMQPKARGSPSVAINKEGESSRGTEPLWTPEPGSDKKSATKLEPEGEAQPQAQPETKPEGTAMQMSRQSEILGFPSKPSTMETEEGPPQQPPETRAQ
To be noted: kinase TSSK1; 1 µmol/L single concentration; read-out: %-inhibition at 1 µmol/L, TSSK1.

Experiment [16] has as its target panel of 255 wild-type kinases (Homo sapiens, UniProt Q13554). The settings on record: CaMK2β kinase assay; 1 µmol/L single concentration; read-out: %-inhibition CaMK2β.
In experiment [17] the target is T2, panel of 255 wild-type kinases (Homo sapiens, UniProt Q9HBY8).
T2 sequence (Q9HBY8 1-367): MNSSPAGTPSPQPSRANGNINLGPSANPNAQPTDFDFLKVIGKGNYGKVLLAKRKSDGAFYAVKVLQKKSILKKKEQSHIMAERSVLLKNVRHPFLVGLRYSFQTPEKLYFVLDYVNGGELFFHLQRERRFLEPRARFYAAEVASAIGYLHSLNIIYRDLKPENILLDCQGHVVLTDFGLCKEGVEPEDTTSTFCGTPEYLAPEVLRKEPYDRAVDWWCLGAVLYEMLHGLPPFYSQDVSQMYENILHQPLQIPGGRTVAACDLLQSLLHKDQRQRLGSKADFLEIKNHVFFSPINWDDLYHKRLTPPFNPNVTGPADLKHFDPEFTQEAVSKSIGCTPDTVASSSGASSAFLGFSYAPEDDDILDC
To be noted: kinase SGK2; 1 µmol/L single concentration; read-out: %-inhibition at 1 µmol/L, SGK2.

The target of experiment [18] is panel of 255 wild-type kinases (Homo sapiens, UniProt Q15759). The settings on record: p38β; 1 µmol/L single concentration; read-out: %-inhibition, p38β.

Take `Cn1cc(-c2cc3c(N4CCN(c5ncc([C@@](C)(N)c6ccc(F)cc6)cn5)CC4)ncnn3c2)cn1` [avapritinib]: the inhibition at 1 µM in [1] stood at 35%; in [2], 60%; in [3], 57%; in [4], 1.58%; in experiment [5], 28%; in experiment [6], 54%. The inhibition at 1 µM in experiment [7] was -0.951%; in experiment [8], 30%; in experiment [9] it was 1.29%; in [10] it was 2.57%; in [11], 12%; in experiment [12] it was 0.682%. Also, the inhibition at 1 µM in [13] was 48%; in experiment [14] it was -12%; in experiment [15], 2.83%; in [16], 0.895%; in experiment [17], -4.22%; in experiment [18], -2.41%.
On to `C[C@H](Nc1ncnc2nc[nH]c12)c1cc2cccc(Cl)c2c(=O)n1-c1ccccc1` [duvelisib], for which the inhibition at 1 µM in experiment [1] was 3.74%; in experiment [2] it was -6.36%; in experiment [3] it was 2%; in [4], 0.739%; in [5], -1.46%; in experiment [6] it was 0.582%. The inhibition at 1 µM is -0.863% in experiment [7]; 5% in experiment [8]; -7% in experiment [9]; 1.86% in experiment [10]; -2.34% in experiment [11]; 4.54% in experiment [12]. The inhibition at 1 µM in experiment [13] was 8%; in [14], -2.13%; in experiment [15], -4%; in experiment [16] it was -7.37%; in experiment [17], -2.27%; in experiment [18], 0.677%.
As for `COc1cc2ncnc(Nc3ccc(F)c(Cl)c3)c2cc1NC(=O)/C=C/CN1CCCCC1` [dacomitinib], the inhibition at 1 µM in experiment [1] is 17%; in [2], 14%; in experiment [3] it was -0.0882%; in experiment [4] it was 3.42%; in [5] it was 1.84%; in [6], 86%. The inhibition at 1 µM in experiment [7] is 0.863%; in [8], 27%; in [9], 10%; in experiment [10], 18%; in experiment [11], -2.15%; in [12] it was 53%. Also, the inhibition at 1 µM in [13] was 5%; in [14], -0.433%; in [15] it was -2.48%; in experiment [16], 2.54%; in [17] it was -9%; in [18], 8.44%.
Take `CCN1CCN(c2ccc(Nc3cc(N(C)C(=O)Nc4c(Cl)c(OC)cc(OC)c4Cl)ncn3)cc2)CC1` [infigratinib]: the inhibition at 1 µM in experiment [1] is 43%; in [2] it was 0.318%; in experiment [3] it was 6%; in [4], -4.25%; in experiment [5], -0.947%; in experiment [6], 34%. Moreover, the inhibition at 1 µM is -5.51% in experiment [7]; -3% in experiment [9]; 2.24% in [10]; 13% in experiment [11]; 5.46% in [12]; 0.707% in experiment [13]. Further, the inhibition at 1 µM was -9% in experiment [14], 3.24% in experiment [15], -8% in experiment [17] and -1.57% in experiment [18].
On to `Cn1cnc2c(F)c(Nc3ccc(Br)cc3Cl)c(C(=O)NOCCO)cc21` [selumetinib], for which the inhibition at 1 µM in [2] was -1.4%; in experiment [3] it was 10%; in experiment [4] it was 0.0183%; in experiment [5], -2.69%; in [6], 5%; in [7] it was -2.61%. Further, the inhibition at 1 µM in experiment [8] is 2.3%; in [9] it was 0.627%; in experiment [10] it was 0.0795%; in [11], 3.45%; in experiment [12], 6%; in experiment [13], -1.28%. For the same compound, the inhibition at 1 µM in [14] was -14%; in experiment [15] it was 0.947%; in experiment [16], -0.923%; in experiment [17], -5%; in [18], -1.71%.
On to `C=CC(=O)N1CCC([C@@H]2CCNc3c(C(N)=O)c(-c4ccc(Oc5ccccc5)cc4)nn32)CC1` [zanubrutinib], for which the inhibition at 1 µM in experiment [1] was 2.23%; in experiment [2] it was -1.86%; in experiment [3], -3.55%; in experiment [4], -3.58%; in [5] it was -3.73%; in experiment [6], 5%. Moreover, the inhibition at 1 µM in experiment [7] was -2.35%; in experiment [8] it was 6.44%; in experiment [9], -2.7%; in experiment [11], 1%; in experiment [12], 99%; in experiment [13], 5%. Also, the inhibition at 1 µM in experiment [14] is -21%; in [15], 2.13%; in [16], 2.44%; in [17] it was -2.33%; in experiment [18] it was 4.54%.
In the case of `C[C@H]1Oc2cc(cnc2N)-c2c(nn(C)c2C#N)CN(C)C(=O)c2ccc(F)cc21` [lorlatinib], the inhibition at 1 µM in experiment [2] is 45%; in experiment [4], -1.71%; in experiment [5] it was -2.3%; in [6] it was 87%; in experiment [7] it was 4%; in [8] it was 7%. Besides, the inhibition at 1 µM in [9] was -0.456%; in experiment [10] it was 1.12%; in experiment [11], -0.571%; in [12], 63%; in [13] it was 11%; in experiment [14], 11%. In addition, the inhibition at 1 µM in experiment [15] is 84%; in experiment [16], -3.21%; in [17], 4.34%; in [18], 1.15%.
